# Source: patent US20260297679A1, “ASSAYS FOR MONITORING INHIBITION OF RNA HELICASE DHX9” (ACCENT THERAPEUTICS, INC., priority 2023, published 2026)
# Test system: LS411N tumors
# Test: In vivo efficacy study, tumor volume, LS411N xenograft
# Design: species or system human xenograft in female BALB/c nude mice
# Settings: BID oral, 21 days; FIG. 4B
# Protocol: In vivo Efficacy Study: Experiments were performed in female BALB/c nude mice (GenPharmatech Co.). Animals were allowed to acclimate for 7 days before the study. The general health of the animals were evaluated by a veterinarian, and complete health checks were performed prior to the study. General procedures for animal care and housing were in accordance with the standard, Commission on Life Sciences, National Research Council, Standard Operating Procedures (SOPs) of Pharmaron, Inc. The mice were kept in laminar flow rooms at constant temperature and humidity with 3-5 mice in each cage. Animals were housed in polycarbonate cage which is the size of 300×180×150 mm^3 and in an environmentally monitored, well-ventilated room maintained at a temperature of (23±3° C.) and a relative humidity of 40% 70%. Fluorescent lighting provided illumination approximately 12 hours per day. […]
# The LS411N (ATCC; CRL-2159) tumor cell lines were maintained in vitro as monolayer in RPMI 1640 medium supplemented with 10% heat inactivated FBS, at 37° C. in an atmosphere of 5% CO2 in air. The tumor cells were sub-cultured, not exceeding 4-5 passages, and cells growing in an exponential growth phase were harvested and counted for tumor inoculation. […]
# The measurement of tumor size was conducted with a caliper and recorded twice per week. […]
compound,measurement,value
"Cc1cccnc1-c1csc(C(=O)Nc2cc(Cl)cc(NS(C)(=O)=O)c2)c1 [Compound 1, N-(3-chloro-5-methanesulfonamidophenyl)-4-(3-methylpyridin-2-yl)thiophene-2-carboxamide]",correlation of tumor volume to circBRIP1 induction,correlate to circBRIP1 induction
